Source: the supplement of paper PMC10307832

What was measured:
Experiment in all cases: relative viability (nuclei count vs DMSO), 5 days (fraction); higher = more cells survive
[1] = compound: CC(=O)Nc1cccc(-n2c(=O)n(C3CC3)c(=O)c3c(Nc4ccc(I)cc4F)n(C)c(=O)c(C)c32)c1 [Trametinib] + C[C@@H](Oc1cc(-c2cnn(C3CCNCC3)c2)cnc1N)c1c(Cl)ccc(F)c1Cl [Crizotinib] (partner 1 µM)
Summary of the method: (§1)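 Lung cancer cell lines were pin-tool dosed in 1536-well plates on the day after seeding, with either a lone drug or a fixed anchor-drug dose plus five library-drug doses (not always all listed) in √10 steps. Nuclei were counted on 4× images after 5 days. Relative viability is the ratio of treated-well to vehicle-well nuclei counts, with each value a median of duplicate plates.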

[2] = compound: CC(=O)Nc1cccc(-n2c(=O)n(C3CC3)c(=O)c3c(Nc4ccc(I)cc4F)n(C)c(=O)c(C)c32)c1 [Trametinib] + Nc1ncn([C@H]2C[C@H](O)[C@@H](CO)O2)c(=O)n1 [Decitabine] (partner 2 µM)
Summary of the method: as §1

[3] = compound: CC(=O)Nc1cccc(-n2c(=O)n(C3CC3)c(=O)c3c(Nc4ccc(I)cc4F)n(C)c(=O)c(C)c32)c1 [Trametinib] + COc1cc2c(Oc3ccc(NC(=O)C4(C(=O)Nc5ccc(F)cc5)CC4)cc3F)ccnc2cc1OCCCN1CCOCC1 [Foretinib] (partner 0.25 µM)
Summary of the method: as §1

[4] = compound: CC(=O)Nc1cccc(-n2c(=O)n(C3CC3)c(=O)c3c(Nc4ccc(I)cc4F)n(C)c(=O)c(C)c32)c1 [Trametinib] + C[C@]1(O)C[C@@H](c2nc(-c3ccc4ccc(-c5ccccc5)nc4c3)c3c(N)nccn32)C1 [Linsitinib] (partner 1 µM)
Summary of the method: as §1

Cell Line	relative viability ([1]; first compound 0.0025 µM)	relative viability ([1]; first compound 0.007906 µM)	relative viability ([1]; first compound 0.025 µM)	relative viability ([1]; first compound 0.07906 µM)	relative viability ([1]; first compound 0.25 µM)	relative viability ([2]; first compound 0.0025 µM)	relative viability ([2]; first compound 0.007906 µM)	relative viability ([2]; first compound 0.025 µM)	relative viability ([2]; first compound 0.07906 µM)	relative viability ([2]; first compound 0.25 µM)	relative viability ([3]; first compound 0.0025 µM)	relative viability ([3]; first compound 0.007906 µM)	relative viability ([3]; first compound 0.025 µM)	relative viability ([3]; first compound 0.07906 µM)	relative viability ([3]; first compound 0.25 µM)	relative viability ([4]; first compound 0.0025 µM)	relative viability ([4]; first compound 0.007906 µM)	relative viability ([4]; first compound 0.025 µM)	relative viability ([4]; first compound 0.07906 µM)	relative viability ([4]; first compound 0.25 µM)
NCI-H1944	1	0.763	0.762	0.629	0.326	0.446	0.379	0.403	0.386	0.294	0.811	0.634	0.572	0.461	0.341	1.08	0.79	0.643	0.606	0.428
HCC-827	0.931	0.946	0.889	0.859	0.532	0.365	0.289	0.315	0.274	0.236	1.01	0.95	0.787	0.556	0.425	0.958	0.893	0.944	0.886	0.753
COR-L23	0.66	0.682	0.665	0.425	0.337	0.428	0.435	0.329	0.372	0.293	1.05	1.04	0.953	0.777	0.45	0.874	0.851	0.827	0.639	0.306
NCI-H3122	0.238	0.228	0.221	0.199	0.209	0.416	0.383	0.315	0.279	0.268	0.895	0.769	0.293	0.251	0.159	0.938	0.734	0.429	0.329	0.295
BEN	0.794	0.825		0.717	0.81	0.768	0.663	0.5	0.506	0.654	0.757	0.727	0.302	0.408	0.499	0.81	0.762		0.687	0.882
NCI-H647	0.961	1.04	0.746	0.671	0.572	0.39	0.349	0.377	0.344	0.19	1.35	1.08	0.963	0.911	0.4	1.07	0.803	0.835	0.933	0.58
PC-14	0.994	0.909	0.815	0.686	0.55	0.229	0.184	0.286	0.145	0.125	0.911	0.823	0.809	0.885	0.693	0.996	0.89	0.787	0.59	0.434
HCC-78	0.318	0.275	0.252	0.285	0.215	0.81	0.662	0.621	0.683	0.66	0.515	0.392	0.513	0.443	0.403	0.543	0.323	0.314	0.354	0.36
NCI-H1666	0.74	0.766	0.72	0.586	0.394	0.742	0.684	0.622	0.602	0.5	0.892	0.758	0.709	0.685	0.59	0.56	0.524	0.426	0.571	0.388
COR-L 105	0.729	0.605	0.374	0.329	0.285	0.64	0.609	0.486	0.375	0.36	0.815	1.19	0.489	0.552	0.374	0.788	0.754	0.49	0.394	0.367
LU99A	0.554	0.489	0.473	0.368	0.214	0.796	0.813	0.59	0.665	0.511	0.793	0.817	0.637	0.53	0.438	0.593	0.522	0.441	0.47	0.291
NCI-H596	0.8	0.824	0.757	0.721	0.597	0.967	0.96	0.952	0.968	0.739	0.793	0.596	0.709	0.69	0.396	1.04	0.851	0.769	0.774	0.76
201T	1.05	1.01	0.859	0.872	0.799	0.854	0.743	0.765	0.782	0.749	1.05	1	1.02	0.815	0.715	1.01	1.02	0.863	0.959	0.778
HCC-15	0.658	0.53	0.415	0.259	0.187	0.519	0.464	0.501	0.248	0.234	0.75	0.559	0.343	0.244	0.201	0.694	0.447	0.294	0.239	0.186
